Assay results taken from publication PMC5461952 (Chemical research in toxicology, 2012).
“Also recorded” adds a separate entry of the source. Where two headings read alike, the source gives them in different places.

What was measured:
[1] = molecular target: T1, human P450 1A1 (Homo sapiens, UniProt P04798); experiment: EROD; assay type: biochemical; details: for IC50 P450 1A1: human P450 1A1 supersomes, EROD, 5 μM substrate, 37 °C, Dixon plot
T1 sequence (P04798 1-512): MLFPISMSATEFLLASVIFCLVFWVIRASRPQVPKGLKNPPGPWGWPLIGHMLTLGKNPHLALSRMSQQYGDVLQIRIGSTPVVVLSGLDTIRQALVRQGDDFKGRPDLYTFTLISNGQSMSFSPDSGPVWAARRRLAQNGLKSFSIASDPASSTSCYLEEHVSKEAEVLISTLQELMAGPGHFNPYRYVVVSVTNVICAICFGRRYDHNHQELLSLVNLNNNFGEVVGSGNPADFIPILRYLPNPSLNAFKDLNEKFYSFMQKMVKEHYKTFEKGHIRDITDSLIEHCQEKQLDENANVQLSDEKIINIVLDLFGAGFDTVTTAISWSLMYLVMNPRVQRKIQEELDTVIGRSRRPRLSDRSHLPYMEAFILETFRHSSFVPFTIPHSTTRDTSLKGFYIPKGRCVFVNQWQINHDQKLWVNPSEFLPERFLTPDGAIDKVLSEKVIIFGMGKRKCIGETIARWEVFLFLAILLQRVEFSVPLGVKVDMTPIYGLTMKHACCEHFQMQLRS

[2] = molecular target: T2, CYP1A1 (Homo sapiens, UniProt P04798); experiment: Mechanism-based; assay type: biochemical; details: human, human P450 1A1 supersomes, pH 7.6, probe 7-ethoxyresorufin (EROD)
T2 sequence (P04798 1-512): T1 sequence (P04798 1-512)

[3] = molecular target: T1, human P450 1A1; experiment: Mechanism-based; assay type: biochemical
[4] = molecular target: T3, human P450 1A2 (Homo sapiens, UniProt P05177); experiment: Mechanism-based; assay type: biochemical
T3 sequence (P05177 1-516): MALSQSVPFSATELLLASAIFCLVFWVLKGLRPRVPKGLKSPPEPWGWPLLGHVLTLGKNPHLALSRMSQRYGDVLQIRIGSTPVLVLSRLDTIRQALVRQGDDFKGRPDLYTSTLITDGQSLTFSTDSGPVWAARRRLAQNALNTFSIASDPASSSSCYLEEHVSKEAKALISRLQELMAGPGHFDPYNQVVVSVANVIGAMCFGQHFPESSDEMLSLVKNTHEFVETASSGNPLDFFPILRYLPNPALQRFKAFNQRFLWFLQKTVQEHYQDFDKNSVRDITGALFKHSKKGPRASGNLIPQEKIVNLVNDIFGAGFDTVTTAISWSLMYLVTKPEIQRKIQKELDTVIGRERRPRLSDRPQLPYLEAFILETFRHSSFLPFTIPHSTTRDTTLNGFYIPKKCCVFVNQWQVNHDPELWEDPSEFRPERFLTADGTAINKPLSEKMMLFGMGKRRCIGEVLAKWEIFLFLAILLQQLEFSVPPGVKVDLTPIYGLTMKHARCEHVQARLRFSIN

[5] = molecular target: T4, human P450 2A6 (Homo sapiens, UniProt P11509); experiment: Coumarin 7-hydroxylation inhibition assay in supersomes
T4 sequence (P11509 1-494): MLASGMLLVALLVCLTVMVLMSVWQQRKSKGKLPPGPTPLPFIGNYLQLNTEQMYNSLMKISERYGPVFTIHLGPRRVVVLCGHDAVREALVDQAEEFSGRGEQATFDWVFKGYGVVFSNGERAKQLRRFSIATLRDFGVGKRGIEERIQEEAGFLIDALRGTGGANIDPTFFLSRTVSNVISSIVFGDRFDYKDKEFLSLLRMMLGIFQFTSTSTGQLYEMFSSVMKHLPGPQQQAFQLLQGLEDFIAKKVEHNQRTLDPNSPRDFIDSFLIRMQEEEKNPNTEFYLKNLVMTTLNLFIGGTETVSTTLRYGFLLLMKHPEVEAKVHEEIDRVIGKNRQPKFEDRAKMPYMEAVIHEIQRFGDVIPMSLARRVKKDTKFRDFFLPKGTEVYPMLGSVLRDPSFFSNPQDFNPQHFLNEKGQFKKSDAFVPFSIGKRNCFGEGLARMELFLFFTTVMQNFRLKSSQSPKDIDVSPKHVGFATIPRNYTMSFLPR

[6] = molecular target: T5, rat P4502B1 (Rattus norvegicus, UniProt P00176); experiment: PROD
T5 sequence (P00176 1-491): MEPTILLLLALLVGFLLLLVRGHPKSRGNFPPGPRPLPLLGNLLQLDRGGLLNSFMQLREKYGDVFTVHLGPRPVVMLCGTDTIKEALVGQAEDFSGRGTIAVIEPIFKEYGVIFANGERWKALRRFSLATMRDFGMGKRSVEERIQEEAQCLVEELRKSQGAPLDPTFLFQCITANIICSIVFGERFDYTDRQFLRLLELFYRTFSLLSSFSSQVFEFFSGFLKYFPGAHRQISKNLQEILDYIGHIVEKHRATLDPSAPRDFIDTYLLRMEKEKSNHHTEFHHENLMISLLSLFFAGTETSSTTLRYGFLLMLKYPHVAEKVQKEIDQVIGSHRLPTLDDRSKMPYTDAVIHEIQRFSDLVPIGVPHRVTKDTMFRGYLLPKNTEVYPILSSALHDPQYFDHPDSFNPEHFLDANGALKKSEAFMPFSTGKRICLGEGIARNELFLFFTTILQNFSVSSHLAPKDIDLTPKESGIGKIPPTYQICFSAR

[7] = molecular target: T3, human P450 1A2; experiment: MROD; assay type: biochemical
[8] = 5 min preincubation in presence and absence of NADPH

IC50 P450 1A1 [1]	KI (inactivation) at 6 min [2] [µM]	kinact ([3]; read-out: Kinactivation (rate constant for maximal inactivation at saturation), P450 1A1) [s⁻¹]	Ki [4] [µM]	kinact ([4]; read-out: Kinactivation, P450 1A2) [s⁻¹]	IC50 [5] [µM]	IC50 [6] [µM]	IC50 [1] [µM]	IC50 [7] [µM]	IC50 P450 1A2 ([7]; human P450 1A2 supersomes, MROD, 5 μM substrate, 37 °C, Dixon plot)	Mechanism-based inhibition of P450 1A1 (result in words) [3]	Mechanism-based inhibition of P450 1A2 (result in words) [4]	SMILES	Mechanism-based inhibition of P450 1A1 (result in words) [3, 8]	Mechanism-based inhibition of P450 1A2 (result in words) [4, 8]
submicromolar potency	5.38	0.0262	0.5	0.00133	> 50	> 50						Cc1cc(Cl)c2c(c1N)C(=O)c1ccccc1C2=O [Compound 1, 1-Amino-4-chloro-2-methylanthracene-9,10-dione]	act as a mechanism-based inhibitor; also recorded: demonstrated mechanism-based inhibition	act as a mechanism-based inhibitor; also recorded: demonstrated mechanism-based inhibition
					> 50	2.15	2.09	0.53				Nc1ccc(O)c2c1C(=O)c1ccccc1C2=O [Compound 2, 1-amino-4-hydroxyanthracene-9,10-dione]	did not show mechanism-based inhibition; also recorded: does not demonstrate mechanism-based inhibition	did not show mechanism-based inhibition; also recorded: does not demonstrate mechanism-based inhibition
did not inhibit					> 50	5.66	> 50	> 50	did not inhibit			CC(C)(C)C1=CC(=O)c2c(ccc(C(C)(C)C)c2O)C1=O [Compound 8, 2,6-Di-tert-butyl-5-hydroxynaphthalene-1,4-dione]		
					> 50	14.9				did not cause mechanism-based inhibition	did not cause mechanism-based inhibition	Cc1cc(O)c2c(c1)C(=O)c1cc(O)cc(O)c1C2=O [emodin, Emodin, reference compound]		
